Measured values from US4223016A, “Peptides” (Beecham Group Limited, priority 1977, dated 1980).
Where a SMILES comes first, the peptide text is derived from it. Where no end group is shown, it is not given here.

Legend:
[1] = tested on: Rat Peritoneal Mast Cells; test: Histamine release from rat peritoneal mast cells (Rat Mast Cell in vitro test); assay type: cell-based; conditions: for EC50: average of a number of experiments, read-out: ACTIVITY: average concentration of peptide to give approximately 50% release of available histamine from rat mast cells
Text: (§1) (a) (1) Histamine, (2) Cr^51 and (3) Lactic Dehydrogenase Release from Rat Peritoneal Mast Cells (Rat Mast Cell in vitro test)
(§2) Mast cells, derived from the peritoneal washings of three male, outbred Wistar rates (250-300 g), were purified by the procedure according to Cooper and Stanworth (Preparative biochem. 4(2), 105, 1975).
(§3) The purified cells were washed twice in Dulbecco's incomplete (i.e. free from mineral salts) buffer and then resuspended in Dulbecco's medium to the required volume. In a typical experiment, sufficient cells were available for 30 duplicate challenges, i.e. 60 samples and in this case the resuspension volume employed was 6.1 mls. 0.1 ml of cell suspension were taken for estimating the cell count.
One third of the cell suspension was employed. To 0.9 ml duplicate aliquots of challenge solution, prepared in complete Dulbecco's medium and prewarmed to 37° C., was added 0.1 ml of cell suspension. The solutions were then shaken gently, and allowed to incubate for 5 minutes at 37° C. The reaction tubes were then quickly removed from the incubator and placed in an ice bath. Supernatants were then seqparated from the cell population following centrifugation for 3 minutes at 1000 r.p.m. The cell residues were then treated with 2 mls of 0.4 N perchloric acid and allowed to stand for approximately 30 minutes at ambient temperature. The precipitated protein was removed by centrifugation and the supernatant solutions set aside for histamine analysis. The original supernatant solutions were treated with 1.0 ml of 0.8 N perchlorate and then treated in a similar manner to the cell residues. Histamine was measured by the method according to Evans, Lewis and Thompson (Life Sciences, 12, 327, 1973) using a Technicon Auto-analyser. Histamine release was calculated as a percentage of total histamine available in each challenge solution.

Rat Skin = test: Skin test, intradermal titration in rat skin in vivo; conditions: read 20 minutes after intradermal challenge
Procedure: (§4) Skin tests were carried out in the shaved backs of animals (rats and baboons) immediately after intravenous injection of pontamine sky blue (5%) in aqueous sodium chloride solution (0.9%) at a dose of 0.1 ml per kilogram of body weight in the case of rats and 5 ml per animal in the case of baboons.
(§5) Peptide in aqueous sodium chloride solution (0.9%), or saline control, were injected intradernally in 0.05 ml or 0.10 ml volumes. Skin reactions were read 20 minutes after intradernal challenge.

Baboon Skin = test: Skin test, intradermal titration in baboon skin in vivo; conditions: for ACTIVITY: average concentration of peptide to give an end point in intradernal titrations in baboon skin: read 20 minutes after intradermal challenge
Procedure: as §4, §5

[2] = tested on: Rat Peritoneal Mast Cells; test: Cr^51 and lactic dehydrogenase (LDH) release from rat peritoneal mast cells; assay type: cell-based; conditions: Rat Mast Cells in vitro
Text: as §1, §2, §3
One third of the cell suspension was employed. […] Activity present in the whole recovered supernatants was measured using a Tracer Laboratory Spectromatic γ counter. The percentage of Cr^51 released was assessed in relation to the values obtained for the positive and negative control solutions.
One third of the cell suspension was employed. […] The solutions were incubated at ambient temperature for 20 minutes and the fluorescence emission was then measured. […] The LDH activity was assessed in terms of the increase of fluorescence over control due to NADH formation following lactate addition. […]

[3] = tested on: peritoneal mast cells of ovalbumen-immunised Brown Norway rats; test: Cross desensitisation between antigen and peptide in the in vitro rat mast cell system; assay type: cell-based
Procedure: (c) Cross Desensitisation in the vitro rat mast cell system between antigen and peptide
Brown Norway rats were immunised intraperitoneally with 100 μg of ovalbumen (XOA) in lmg `alum`. On day 27, peritoneal mast cells were removed, bulked and washed. Aliquots of cells were desensitised by the addition of 4×5 minute incubations with various XOA or peptide concentrations or buffer alone. The cells were then submitted to an optimal histamine releasing challenge of peptide, XOA, or challenged with buffer alone.

[4] = cells desensitised with the substance in 4 rising steps (BRL 21547 5 × 10^-8 to 10^-6 M; XOA 0.005 to 0.1 μg/ml), challenge Buffer
[5] = cells desensitised with the substance in 4 rising steps, challenge BRL 21547 (10^-5 M)
[6] = cells desensitised with the substance in 4 rising steps, challenge XOA lμg/ml
[7] = desensitisation steps 1-4 Buffer, challenge with the substance (BRL 21547 10^-5 M; XOA lμg/ml)

EC50 [1] | Compound | Inhibition of Activity ([1]; inhibition of the peptide's histamine release by Intal (10^-4)) | ACTIVITY: average concentration of peptide to give an end point in intradernal titrations in rat skin (Rat Skin) | ACTIVITY: average concentration of peptide to give an end point in intradernal titrations in baboon skin (Baboon Skin) | LDH/^51 Cr Release ([2]; at 10^-6 M) | cross-desensitisation in rat mast cells in vitro between peptide and antigen (in words) [3] | Total average % histamine release [3, 4] | Total average % histamine release [3, 5] | Total average % histamine release [3, 6] | Total average % histamine release [3, 7] | Inhibition of Activity (Baboon Skin; by Antihistamine or Intal-like drug) | LDH/^51 Cr Release ([2]; at 10^-4 M peptide)
7.5 µM | COC(=O)[C@H](Cc1ccccc1)NC(=O)[C@H](Cc1ccccc1)NC(=O)CNC(=O)[C@H](CO)NC(=O)CNC(=O)[C@H](CCCCN)NC(=O)[C@@H](NC(=O)[C@@H](N)CCCCN)[C@@H](C)O [Example No. 1, LysThrLysGlySerGlyPhePheOMe] (H-KTKGSGFF-OMe) | 50% | 100 µM | 500 nM | None | – | – | – | – | – | – | –
0.15 µM | COC(=O)[C@H](Cc1ccccc1)NC(=O)[C@H](Cc1ccccc1)NC(=O)CNC(=O)[C@H](CO)NC(=O)CNC(=O)[C@H](CCCCN)NC(=O)[C@@H](NC(=O)[C@H](CCCCN)NC(=O)[C@@H](N)CCCNC(=N)N)[C@@H](C)O [Example No. 2, ArgLysThrLysGlySerGlyPhePheOMe] (H-RKTKGSGFF-OMe) | – | 100 µM | 100 nM | – | – | – | – | – | – | – | –
1 µM | COC(=O)[C@H](Cc1ccccc1)NC(=O)[C@@H](NC(=O)[C@H](Cc1ccccc1)NC(=O)[C@H](Cc1ccccc1)NC(=O)CNC(=O)[C@H](CO)NC(=O)CNC(=O)[C@H](CCCCN)NC(=O)[C@@H](NC(=O)[C@@H](N)CCCCN)[C@@H](C)O)C(C)C [Example No. 3, LysThrLysGlySerGlyPhePheValPheOMe] (H-KTKGSGFFVF-OMe) | – | 10 µM | 10 nM | – | cross-desensitisation | 6% | 6% | 17% | 47% | Partial | None
9.2 µM | COC(=O)[C@H](Cc1ccccc1)NC(=O)[C@H](Cc1ccccc1)NC(=O)CNC(=O)[C@H](CO)NC(=O)CNC(=O)[C@H](CCCCN)NC(=O)[C@@H](NC(=O)[C@H](CCCCN)NC(=O)[C@H](CCCNC(=N)N)NC(=O)[C@@H]1CCCN1)[C@@H](C)O [Example No. 5, ProArgLysThrLysGlySerGlyPhePheOMe] (H-PRKTKGSGFF-OMe) | – | 100 µM | 100 nM | – | – | – | – | – | – | – | –
10 µM | KTKGSGFF-OH [Example No. 6, LysThrLysGlySerGlyPhePheOH] | – | 100 µM | 10000 nM | – | – | – | – | – | – | – | –
33 µM | KTKGSGFFVF-OH [Example No. 4, LysThrLysGlySerGlyPhePheValPheOH] | – | 100 µM | 10000 nM | – | – | – | – | – | – | – | –
– | XOA: ovalbumen (XOA), the antigen used to immunise Brown Norway rats and to challenge or desensitise their mast cells [reference compound] | – | – | – | – | – | 6% | 6% | 6% | 56% | – | –
